{"source": "patent US9809563B2", "about": "(GIFU University, priority 2014, dated 2017)", "molecular_target": "abnormal prion protein (Mus musculus, UniProt P04925)", "sequence (P04925 23-230 limits assumed)": "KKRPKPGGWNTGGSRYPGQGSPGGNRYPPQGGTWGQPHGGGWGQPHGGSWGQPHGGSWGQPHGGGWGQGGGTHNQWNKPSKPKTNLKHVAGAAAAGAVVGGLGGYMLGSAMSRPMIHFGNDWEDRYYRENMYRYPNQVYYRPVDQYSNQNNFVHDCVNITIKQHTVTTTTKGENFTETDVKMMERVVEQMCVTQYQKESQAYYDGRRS", "assay": "cell-based", "note": "Where a name gives a salt, the structure may show the parent alone.", "data": [{"molecule": "O=C(CN1CCCC1)Nc1ccc(C(c2ccc(NC(=O)CN3CCCC3)cc2)C2CCCCC2)cc1", "note": "[maleic acid salt, N,N′-[(cyclohexylmethylene)di-4,1-phenylene]bis[2-(1-pyrrolidinyl)acetamide] maleate]", "values": [{"measurement": "IC50", "value": "460 ± 200", "unit": "nM"}]}]}
